Reference: paper PMC12476894, “Identification of α‑Azacyclic Acetamide-Based Inhibitors of P. falciparum Na^+ Pump (PfATP4) with Fast-Killing Asexual Blood-Stage Antimalarial Activity by Phenotypic Screening” (ACS Infectious Diseases, 2025)
≈ marks a conversion by molar mass, not a printed value. Where “and” joins values, the source holds several entries; their conditions need not be identical. Identical values can stand only once. Like-named read-outs stand apart in the source and are kept apart here.

How the values were obtained:
[1] = tested on: Pf3D7 trophozoite-stage parasites, cytosolic pH (pHcyt); cell-based assay for ATP4 inhibition; test: P. falciparum cytosolic dose response pH assay (BCECF, with concanamycin A); details: for EC50: Plasmodium falciparum, read-out: Pf3D7 pH EC50
[2] = tested on: Dd2 PfATP4^F917L mutant clones; test: 72 h SYBR Green growth inhibition, 2- or 3-selected Dd2 clones with PfATP4 F917L (Phillips Lab); format: cell-based, Plasmodium falciparum; details: for EC50: Plasmodium falciparum
Description: (§1) To confirm the MOA for the α-azacyclic acetamides against P. falciparum and to obtain potential information about whether or not they bind PfATP4 at an overlapping site with that of KAE609, we undertook resistance selections using PfDd2 parasites using the published cycling drug selection method. , α-Azacyclic acetamides 2 and 3 were chosen as representative examples of the pyrrole- and indole-based series, respectively. […] Additional cycles were performed at 20 × EC50, until resistant parasites were detected based on a fold change in EC50 compared to the parental clonal Dd2 line (Table S3). Resistant parasites were detected in the 2-selections in all 4 flasks after 4 pulses and for 3-selections in 3 flasks after 5 pulses. Clonal lines were generated from each flask, and one clone per flask was selected for WGS and EC50 determination (Tables S4 and S5). WGS analysis identified two single point mutations in PfATP4 that were not present in the original clonal Dd2 parasite line (Tables and S4). P412L was found in three of four flasks containing 2-selected resistance clones, and F917L was identified in all three flasks containing 3-selected clones and in the fourth flask containing 2-selected clones (Table S4). PfATP4 mutations identified by the WGS analysis in parasite lines were verified by PCR of the pfatp4 gene, followed by Sanger sequencing (Figures S5, S6 and Table S6). An additional protein coding gene (ribosomal protein S8e) was mutated in the 2-selections. However, this mutation was identified in only one of four sequenced clones and is therefore unlikely to be related to resistance to 2 (Figure S7). All three resistant clones derived from the 3-selections harbored an identical mutation in a gene (pfcpu) encoding a conserved protein of unknown function, which was absent in the parental line (Figure S8).
(§2) ABS P. falciparum 3D7, Dd2 or PfNF54^luc parasites (BEI resources) were cultured in RPMI 1640 medium (Millipore Sigma), supplemented with 25 mM HEPES, 0.5% Albumax-I (Thermo Scientific), 23 mM sodium bicarbonate, 92 μM hypoxanthine, and 10 μg/mL gentamicin sulfate at 37 °C, 5% CO2, using deidentified O^+ red blood cells (BioIVT) as previously described. − Growth inhibition assays were conducted in 96 well plate format using the SYBR Green or luciferase reporter assay depending on the strain with modifications as described , (see Supporting Information for a detailed description). Details for the luciferase reporter assay are described below under the BRRoK assay section.
(§3) EC50 and CC50 values were determined by nonlinear regression performed in GraphPad Prism Version 10. Unless otherwise specified, data were fitted to the log(inhibitor) vs response–variable slope with four parameters equation. […] For mutant cell lines and compound combinations where bottom plateau of zero growth was not reached, the bottom of the curve was defined at 0% based on background values obtained for parental Dd2 from the same study.
(§4) Resistant Dd2 parasites were selected using a high-pressure intermittent selection protocol using a previously described method. Selections were set up using 4 flasks per compound starting with approximately 3 × 10^9 parasites per flask (80 mL per flask, 4% hematocrit, 3% parasitemia at the beginning of each pulse, mostly ring-stage parasites via previous sorbitol synchronization. Pulse 1 and 2 (48 h) were conducted at 10xEC50, and subsequent pulses were conducted at 20xEC50. Parasites cleared within 48 h under these conditions. 3-Selections used a total of 4 pulses, while 2-selections required 5 pulses before resistant parasites emerged (Table S3). Culture media was replenished daily for a week after each pulse, then every 2 days with weekly replenishment of blood. Cultures were monitored by microscopy until recrudescence. Clonal parasites were obtained from each flask by limiting dilution and maintained in drug free RPMI-1640 media prior to being analyzed for EC50 shifts. […]

Dd2^P412L (PfATP4^P412L) = test: Drug susceptibility assay for cross-resistance profiling (Fidock Lab), P412L; format: cell-based, Plasmodium falciparum; details: Table 3 data set
Dd2^L350H (PfATP4^L350H) = test: Drug susceptibility assay for cross-resistance profiling (Fidock Lab), L350H; format: cell-based, Plasmodium falciparum; details: Table 3 data set
[3] = tested on: P. falciparum 3D7 parasites (Pf3D7); test: 72 h SYBR Green growth inhibition, ABS P. falciparum 3D7 (Phillips Lab); format: cell-based, Plasmodium falciparum; details: Plasmodium falciparum, 3D7; 72 h SYBR Green assay; mean ± SEM (n)
[4] = tested on: P. falciparum Dd2 (PfDd2) parasites; test: 72 h SYBR Green growth inhibition, ABS P. falciparum Dd2 (Phillips Lab); format: cell-based, Plasmodium falciparum; details: Plasmodium falciparum, DD2, 72 h, read-out: PfDd2 EC50
[5] = tested on: isolated Pf3D7 trophozoites, [Na+]cyt; test: Measurement of P. falciparum cytosolic Na+ concentration (SBFI); format: cell-based, Plasmodium falciparum; details: 50 nM
Description: Measurements were carried out in 96 well plates (excitation wavelengths: 340 and 380 nm; emission wavelength: 515 nm), as described previously. Fluorescence ratio values (340 nm/380 nm) were converted to [Na^+]cyt using a calibration procedure in which parasites were suspended in solutions of varying [Na^+] containing ionophores.

Dd2-B2 (PfATP4^WT) = test: Drug susceptibility assay for cross-resistance profiling (Fidock Lab), parental line; format: cell-based, Plasmodium falciparum; details: for EC50: Plasmodium falciparum
[6] = tested on: Dd2 PfATP4^P412L mutant clones; test: 72 h SYBR Green growth inhibition, 2-selected Dd2 clones with PfATP4 P412L (Phillips Lab); format: cell-based, Plasmodium falciparum; details: for EC50: Plasmodium falciparum
Description: as §1, §2, §3, §4

PfD10 attB + yDHODH = test: 72 h SYBR Green growth inhibition, strain expressing yeast DHODH; format: cell-based; details: Plasmodium falciparum, read-out: PfD10 attB + yDHODH EC50, 72 h SYBR Green assay
[7] = tested on: P. falciparum NF54^luc parasites; test: Luciferase reporter (LR) / BRRoK assay, PfNF54^luc; format: cell-based; details: Plasmodium falciparum, NF54, Hec50, 72 h
PfD10 attB = test: 72 h SYBR Green growth inhibition, PfD10 attB; format: cell-based; details: Plasmodium falciparum; 72 h SYBR Green assay
[8] = tested on: P. falciparum NF54^luc parasites; test: 72 h SYBR Green growth inhibition, PfNF54^luc; format: cell-based; details: Plasmodium falciparum, 72 h SYBR Green assay, read-out: PfNF54^luc EC50
physchem = details: kinetic from dmso stock
in vitro = in vitro ADME; details: human liver microsomes, 1 µM compound, 0.4 mg/mL protein
[9] = tested on: P. falciparum NF54^luc parasites; test: Luciferase reporter (LR) / BRRoK assay, PfNF54^luc; format: cell-based, Plasmodium falciparum; details: Plasmodium falciparum, NF54, Hec50; luciferase reporter, 6 h
[10] = Human HepG2 cytotoxicity assay (CellTiter Glo); format: cell-based; details: HepG2 cells
[11] = DD2, read-out: EC50, 2-resistant Flask 1 Clone B6
[12] = DD2, read-out: EC50, 3-resistant Flask 2 Clone D10
[13] = DD2, read-out: EC50, 3-resistant Flask 3 Clone D8
[14] = DD2, read-out: EC50, 3-resistant Flask 4 Clone B3
[15] = DD2, read-out: EC50, 3-selected flask #3 clone D8
[16] = Plasmodium falciparum, DD2, 15-selected line
[17] = DD2, read-out: EC50, 2-resistant Flask 2 Clone F9
[18] = DD2, read-out: EC50, 2-resistant Flask 3 Clone F5
[19] = DD2, read-out: EC50, 2-resistant Flask 4 Clone E10
[20] = DD2, read-out: EC50, 2-selected flask #3 clone F5

SMILES | EC50 [1] [µM] | EC50 [2, 11] [µM] | EC50 [2, 12] [µM] | EC50 [2, 13] [µM] | EC50 [2, 14] [µM] | EC50 [2, 15] [µM] | Fold EC50 change compared to WT Dd2, 3-selected flask #3 clone D8 [2] [fold] | EC50 [3] [µM] | EC50 [4] [µM] | EC50 [6, 17] [µM] | EC50 [6, 18] [µM] | EC50 [6, 19] [µM] | EC50 [6, 20] [µM] | Fold EC50 change compared to WT Dd2, 2-selected flask #3 clone F5 [6] [fold] | also measured
C[C@H]1Cc2c([nH]c3cc(Cl)c(F)cc23)[C@@]2(N1)C(=O)Nc1ccc(Cl)cc12 [KAE609, cipargamin, reference compound] | 0.003 ± 0.0021 | 0.012 ± 0.00098 | 0.012 ± 0.00034 | 0.012 ± 0.00097 | 0.014 ± 0.0009 | 0.012 ± 0.00058 | 11 | 0.001 ± 3.8e-05 | 0.0012 ± 8.7e-05 | 0.014 ± 0.0014 | 0.012 ± 0.0014 | 0.014 ± 0.0011 | 0.013 ± 0.0011 | 11 | difference between pH EC50 and growth inhibition EC50 ([1]; Pf3D7, 72 h SYBR Green vs pH assay): ≤ 3.2 fold; effect on parasite cytosolic pH (pHcyt) in presence of CMA (in words) ([1]; Pf3D7, CMA 50 nM): increase in pHcyt; EC50 (Dd2^P412L (PfATP4^P412L); [16]): 0.011 ± 0.0007 µM; EC50 fold-change vs Dd2-B2, Dd2^P412L (Dd2^P412L (PfATP4^P412L)): 8.5 fold; EC50 (Dd2^L350H (PfATP4^L350H); [16]): 0.0048 ± 0.0003 µM; EC50 fold-change vs Dd2-B2, Dd2^L350H (Dd2^L350H (PfATP4^L350H)): 3.7 fold and 4- to 6 fold; increase in [Na+]cyt (in words) [5]: increase in [Na^+]cyt; EC50 (Dd2-B2 (PfATP4^WT); DD2, 72 h, read-out: EC50, Dd2-B2): 0.0013 ± 0.0001 µM; EC50 (Dd2-B2 (PfATP4^WT); DD2, read-out: EC50, Dd2-B2): 0.0021 µM; Fold change, Dd2-B2 (Dd2-B2 (PfATP4^WT); parent, Table S8): 1 fold
COc1ccc(Cl)cc1NC(=O)Cn1cccc1-c1nnc(C2CC2)o1 [compound 1, N-(5-chloro-2-methoxyphenyl)-2-(2-(5-cyclopropyl-1,3,4-oxadiazol-2-yl)-1H-pyrrol-1-yl)acetamide] | 4.5 ± 2 | > 10 | > 10 | > 10 | > 10 | 12 ± 0.46 | 4.6 | 2.5 ± 0.26 | 2.4 ± 0.13 | 7.5 ± 2.4 | 7.6 ± 2 | 9.4 ± 2.5 | 8.3 ± 1.1 | 3.4 | EC50 (PfD10 attB + yDHODH): 3.2 µM; EC50 [7]: 1.6 ± 0.075 µM; EC50 (PfD10 attB): 2.9 µM; EC50 [8]: 3 ± 0.93 µM; solubility (physchem; pH 2, simulated gastric fluid): 25 µM (≈ 9.32 µg/mL); solubility (physchem; pH 6.5, aqueous buffer): 12.5 µM (≈ 4.66 µg/mL); microsomal CLint (in vitro): 279 µL/min/mg; EC50 [9]: 3.2 ± 0.016 µM; CC50 at 96 h [10]: > 50 µM
